Assay results as given in patent publication US4880817A, “O-functionalized derivatives of substituted isoquinolin-3-ols having cardiotonic and/or phosphodiesterase fraction III inhibiting properties and/or renal vasodilating properties” (Ortho Pharmaceutical Corporation, priority 1987, dated 1989).

Each compound was assayed on adult mongrel dogs (assay: Renal vasodilating activity in anesthetized dogs). Settings: Canis lupus familiaris, read-out: HR: percent change in heart rate, dose 6.2 mpk, relative to controls.
Format: in vivo, mongrel dog
Procedure: Goldberg et al., J. Pharmacol. Exp. Ther., 163, 188 (1968), performed an investigation of the structural requirements for dopamine-like renal vasodilation of phenethylamines and apomorphine. The following procedure is a variation of the assay described in that report.
Adult mongrel dogs were anesthetized and surgically prepared for electromagnetic measurement of renal artery blood flow. A carotid artery was cannulated for measuring arterial blood pressure and drugs were administered intravenously or intraarterially (via the renal artery). Heart rate was monitored with a cardiotachometer. Renal vascular resistance was calculated as the ratio of mean arterial blood pressure to renal artery blood flow. Dopamine was infused intravenously at 3 μg/kg/min for ten minutes (at an infusion rate of about 1 ml/min) to determine responsiveness of each dog to renal dopamine receptor stimulation. Cumulative dose-response data were obtained by infusing a compound of this invention at progressively increasing (usually three-fold) infusion rates, each dose being infused for five minutes. The maximum percent change from pre-drug control in renal artery blood flow (or in renal vascular resistance) was determined for each infusion dose.
RBF, RVR, MABP, and HR values are percent changes in renal blood flow, renal vascular resistance, mean arterial blood pressure, and heart rate, respectively, relative to control values.
For `CCOc1cc2c(C)nc(OC(=O)N(CC)CC)c([N+](=O)[O-])c2cc1OC` [Cmpd 28], the change in vivo at 6.2 mg/kg was 5%. `COc1cc2c(C)nc(OC(=O)N(c3ccccc3)c3ccccc3)c([N+](=O)[O-])c2cc1OC` [Cmpd 34] gave a change in vivo at 6.2 mg/kg of 21%.

Same assay, conditions: Canis lupus familiaris, read-out: MABP: percent change in mean arterial blood pressure, dose 6.2 mpk, relative to controls
With `CCOc1cc2c(C)nc(OC(=O)N(CC)CC)c([N+](=O)[O-])c2cc1OC` [Cmpd 28] the change in vivo at 6.2 mg/kg was -18%. `COc1cc2c(C)nc(OC(=O)N(c3ccccc3)c3ccccc3)c([N+](=O)[O-])c2cc1OC` [Cmpd 34] gave a change in vivo at 6.2 mg/kg of -10%.

Same assay, conditions: Canis lupus familiaris, read-out: RBF: percent change in renal blood flow, dose 6.2 mpk, relative to controls
`CCOc1cc2c(C)nc(OC(=O)N(CC)CC)c([N+](=O)[O-])c2cc1OC` [Cmpd 28] showed a change in vivo at 6.2 mg/kg of 50%. `COc1cc2c(C)nc(OC(=O)N(c3ccccc3)c3ccccc3)c([N+](=O)[O-])c2cc1OC` [Cmpd 34] showed a change in vivo at 6.2 mg/kg of 37%.

Same assay, conditions: Canis lupus familiaris, read-out: RVR: percent change in renal vascular resistance, dose 6.2 mpk, relative to controls
With `CCOc1cc2c(C)nc(OC(=O)N(CC)CC)c([N+](=O)[O-])c2cc1OC` [Cmpd 28] the change in vivo at 6.2 mg/kg was -45%. For `COc1cc2c(C)nc(OC(=O)N(c3ccccc3)c3ccccc3)c([N+](=O)[O-])c2cc1OC` [Cmpd 34], the change in vivo at 6.2 mg/kg was -35%.

What follows are compounds tested on adult mongrel dogs (assay: Acute in vivo cardiotonic activity in anesthetized dogs). Settings: Canis lupus familiaris, dose 0.875 mpk, iv, relative to controls, read-out: CF: percent change in cardiac force.
Design: species or system mongrel dog
Procedure: The acute in vivo cardiotonic activity of compounds prepared according to the present invention was determined according to a modification of the procedure described by Alousi et al., Circ.
In particular, adult mongrel dogs were anesthetized with sodium pentobarbital and were artificially respired. Arterial pressure was monitored via a femoral artery, and the pulse pressure was used to trigger a cardiotachometer for heart rate. Left ventricular pressure was determined with a Millar catheter, and dP/dT (the change in ventricular pressure with time) was derived. Cardiac output was determined by measuring ascending aortic blood flow with an electromagnetic flow probe, and myocardial contractile force was measured with a Walton Brodie strain gauge sutured to the right ventricle. Lead II EKG was also recorded.
A standard dose (10 μg/kg/min) of dopamine was administered to assess myocardial responsiveness.
Compounds of the invention were administered by intravenous infusion and the effects on cardiovascular parameters were determined.
In the case of `CCOc1cc2c(C)nc(OC(=O)N(CC)CC)c([N+](=O)[O-])c2cc1OC` [Cmpd 28], the change in vivo at 0.875 mg/kg is reported as 71%.

Same assay, conditions: Canis lupus familiaris, dose 0.875 mpk, iv, relative to controls, read-out: HR: percent change in heart rate
Work on `CCOc1cc2c(C)nc(OC(=O)N(CC)CC)c([N+](=O)[O-])c2cc1OC` [Cmpd 28] yielded a change in vivo at 0.875 mg/kg of 27%.

Same assay, conditions: Canis lupus familiaris, dose 0.875 mpk, iv, relative to controls, read-out: MABP: percent change in mean arterial blood pressure
With `CCOc1cc2c(C)nc(OC(=O)N(CC)CC)c([N+](=O)[O-])c2cc1OC` [Cmpd 28] the change in vivo at 0.875 mg/kg was -4%.

Same assay, conditions: Canis lupus familiaris, dose 0.875 mpk, iv, relative to controls, read-out: dP/dT: maximum percent change in left ventricular pressure with time
Work on `CCOc1cc2c(C)nc(OC(=O)N(CC)CC)c([N+](=O)[O-])c2cc1OC` [Cmpd 28] yielded a change in vivo at 0.875 mg/kg of 70%.

Same assay, conditions: Canis lupus familiaris, dose 1.87 mpk, iv, relative to controls, read-out: CF: percent change in cardiac force
`CCOc1cc2c(C)nc(OC(=O)c3ccc(OC)cc3)c([N+](=O)[O-])c2cc1OC` [Cmpd 11] gave a change in vivo at 1.87 mg/kg of 126%.

Same assay, conditions: Canis lupus familiaris, dose 1.87 mpk, iv, relative to controls, read-out: HR: percent change in heart rate
`CCOc1cc2c(C)nc(OC(=O)c3ccc(OC)cc3)c([N+](=O)[O-])c2cc1OC` [Cmpd 11] was tested, and the change in vivo at 1.87 mg/kg was 25%.

Same assay, conditions: Canis lupus familiaris, dose 1.87 mpk, iv, relative to controls, read-out: MABP: percent change in mean arterial blood pressure
`CCOc1cc2c(C)nc(OC(=O)c3ccc(OC)cc3)c([N+](=O)[O-])c2cc1OC` [Cmpd 11] showed a change in vivo at 1.87 mg/kg of -17%.

Same assay, conditions: Canis lupus familiaris, dose 1.87 mpk, iv, relative to controls, read-out: dP/dT: maximum percent change in left ventricular pressure with time
For `CCOc1cc2c(C)nc(OC(=O)c3ccc(OC)cc3)c([N+](=O)[O-])c2cc1OC` [Cmpd 11], the change in vivo at 1.87 mg/kg was 47%.

What follows are compounds tested against T1, Phosphodiesterase Fraction III (Canis lupus familiaris, UniProt A0A8I3NYE0) (assay: Inhibition of phosphodiesterase fraction III activity). Settings: not given.
T1 construct: The fraction III enzyme was isolated as an isomzyme from the crude canine heart homogenate; from tissue; host or cells: canine heart (crude homogenate, ion exchange chromatography)
T1 sequence (A0A8I3NYE0 1-1135): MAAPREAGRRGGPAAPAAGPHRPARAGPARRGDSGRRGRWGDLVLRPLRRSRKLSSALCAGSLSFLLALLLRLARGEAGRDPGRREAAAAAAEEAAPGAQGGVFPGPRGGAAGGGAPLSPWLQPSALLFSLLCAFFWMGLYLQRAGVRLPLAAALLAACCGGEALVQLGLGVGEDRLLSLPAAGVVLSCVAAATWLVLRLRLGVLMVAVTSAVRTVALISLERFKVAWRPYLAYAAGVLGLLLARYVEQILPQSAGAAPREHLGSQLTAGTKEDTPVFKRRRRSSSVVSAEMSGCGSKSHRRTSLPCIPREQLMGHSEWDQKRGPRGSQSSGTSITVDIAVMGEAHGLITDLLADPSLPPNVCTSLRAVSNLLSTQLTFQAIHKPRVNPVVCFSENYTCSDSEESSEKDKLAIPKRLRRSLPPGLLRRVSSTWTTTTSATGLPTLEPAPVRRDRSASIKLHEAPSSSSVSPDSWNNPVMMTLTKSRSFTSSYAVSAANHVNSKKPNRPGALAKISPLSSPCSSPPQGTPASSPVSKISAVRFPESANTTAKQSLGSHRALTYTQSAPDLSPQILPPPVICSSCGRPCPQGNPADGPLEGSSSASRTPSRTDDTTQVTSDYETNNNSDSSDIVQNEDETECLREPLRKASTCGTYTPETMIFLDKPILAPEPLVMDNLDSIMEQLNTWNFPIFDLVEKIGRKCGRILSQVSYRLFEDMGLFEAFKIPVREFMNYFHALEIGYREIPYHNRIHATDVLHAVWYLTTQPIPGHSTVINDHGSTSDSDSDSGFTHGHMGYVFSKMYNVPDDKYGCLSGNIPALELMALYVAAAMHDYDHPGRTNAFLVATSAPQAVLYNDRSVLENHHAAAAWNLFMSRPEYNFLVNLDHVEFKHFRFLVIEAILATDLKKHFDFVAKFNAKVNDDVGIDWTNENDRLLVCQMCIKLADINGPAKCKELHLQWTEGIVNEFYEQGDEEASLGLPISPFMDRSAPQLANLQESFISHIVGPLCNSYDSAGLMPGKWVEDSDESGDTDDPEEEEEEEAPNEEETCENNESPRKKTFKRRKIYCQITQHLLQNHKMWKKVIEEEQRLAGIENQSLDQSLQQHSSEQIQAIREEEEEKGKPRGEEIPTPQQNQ
Format: biochemical, canine
Procedure: Thompson et al. described a cyclic nucleotide phosphodiesterase assay in Advances in Cyclic Nucleotide Research, Brooker et al., eds., 10, 69-92 (1979). The following procedure is based on that published assay and measures the ability of compounds to inhibit cyclic nucleotide phosphodiesterase which is an enzyme that converts either cyclic AMP or cyclic GMP to the noncyclized AMP or GMP, respectively.
Compounds were tested at various concentrations in the presence of cyclic AMP (0.10-1.0 μM containing 0.2 microCuries ^3 H-cyclic AMP), cyclic nucleotide phosphodiesterase, and 0.05M Tris-Cl buffer (pH 7.4, containing 5 mM magnesium chloride). After a specified time, the reaction was stopped by heating to 100° C. for 1 minute. After cooling, 0.10 ml of a solution containing snake venom (1 mg/ml) was added, and the reaction was allowed to proceed for 30 min. Termination of this reaction was accomplished by the addition of 1.0 ml of 33 percent DOWEX AGl×8 resin slurry (Dow Chemical Co., Midland, MI) to separate the product from the unconverted substrate. An aliquot was removed from the supernatant and analyzed by liquid scintillation spectrometry.
The fraction III enzyme was isolated as an isomzyme from the crude canine heart homogenate by ion exchange chromatography. The enzyme activity was designated fraction III since it is the third and last phosphodiesterase activity to be eluted from the chromatographic column. The fraction III enzyme has a relatively high affinity and specificity for the cyclic AMP.
Data are presented as the IC50 which is the concentration (in micromoles) of a compound that was required to inhibit 50 percent of the cyclic nucleotide phosphodiesterase activity.
In the case of `COc1cc2c(C)nc(OC(=O)N(c3ccccc3)c3ccccc3)c([N+](=O)[O-])c2cc1OC` [Cmpd 34], the IC50 is reported as 35 µM. `CCOc1cc2c(C)nc(OC(=O)N3CCNCC3)c([N+](=O)[O-])c2cc1OC` [Cmpd 71] gave an IC50 of 22 µM.

Same assay, conditions: cyclic AMP 0.10-1.0 μM, pH 7.4; enzyme from canine heart homogenate; read-out: IC50
Compound `CCOc1cc2c(C)nc(OC(=O)c3ccc(OC)cc3)c([N+](=O)[O-])c2cc1OC` [Cmpd 11] has an IC50 of 30 µM. Compound `COC(=O)c1c(OC(C)C)nc(C)c2cc(OC)c(OC)cc12` [Cmpd 18] has an IC50 of 225 µM. `CCOc1nc(C)c2cc(OC)c(OC)cc2c1C(=O)OC` [Cmpd 19, 4-Carbomethoxy-3-ethoxy-6,7-dimethoxy-1-methylisoquinoline] was tested, and the IC50 was 42 µM. In the case of `COc1cc2c(C)nc(OS(=O)(=O)N(C)C)c(N)c2cc1OC` [Cmpd 43], the IC50 is reported as 34 µM. Compound `CCOc1cc2c(C)nc(OC(=O)N(CC)CC)c(N)c2cc1OC` [Cmpd 44] has an IC50 of 180 µM. Work on `COc1cc2c(C)nc(OS(=O)(=O)N(C)C)c(N)c2cc1OC` [Cmpd 63] yielded an IC50 of 185 µM.
